The source of these data is patent US12594266B2, “Triterpenoid antifungals for the treatment or prevention of Pneumocystis spp. pneumonia” (priority 2019, dated 2026).

The test system of series [1] is P. murina. The series is described as follows: Mouse model of prophylaxis for PCP (C3H/HeN mice, intranasal P. murina). The series is classed as in vivo, Pneumocystis murina. To be noted: for Percent Survival at Day 7 / Percent Survival at Day 14 / Percent Survival at Day 21 / Percent Survival at Day 28 / Percent Survival at Day 35 / Percent Survival at Day 42: prophylaxis, mice. As for the experimental part: Compound Preparation: SCY-078 (ibrexafungerp) was prepared in 0.5% methyl cellulose for oral administration. A correction factor of 1.37 for this lot was taken into account for salt and water content. Mice in the high dose group received 0.6 mg of SCY-078 BID, mid dose group received 0.3 mg of SCY-078 BID, and low dose group received 0.15 mg of SCY-078 BID, based on average mouse weights of 20 g.
P. murina prophylaxis study method: C3H/HeN mice (Charles River) were infected by intranasal inoculation of P. murina organisms at 2×10^6/50 μl from a liquid nitrogen repository. Prior to inoculation, the P. murina were pre-incubated overnight in RPMI 1640 medium supplemented with calf serum and antibiotics to eliminate any bacterial contamination. The immune systems of the mice were suppressed by the addition of dexamethasone at 4 mg/liter to acidified drinking water (hydrochloric acid at 1 ml/liter). Acidification is used to prevent secondary microbial infections. The mice were divided into a negative (non-treated) control group (control steroid—C/S), positive control group (trimethoprim/sulfamethoxazole—TMP/SMX) and treatment groups. SCY-078 was administered orally (po) BID at the specified doses. The mice were started on the prophylaxis regimen at the same time they were inoculated. Immune suppression and treatment continued for the entire 6-week study. At the conclusion of that time, the mice were euthanized by CO2 and lungs processed for analysis by homogenization. Slides were made from the lung homogenates at different dilutions and stained with Diff-Quik to quantify total nuclei (trophic forms) and with cresyl echt violet to quantify the asci (cyst forms).
(§1) Calculations: Efficacy was based on the reduction of organism burden between the treatment groups and the negative control group as determined by microscopic evaluation. The nuclei and asci counts for each lung were log transformed and statistical analysis was determined by the analysis of variance (ANOVA); individual groups were compared by the Student-Newman-Keuls t test for multiple comparisons using GraphPad Prism. Statistical significance was accepted at a P value≤0.05.

The test system of series [2] is P. murina. As to the kind of experiment: Mouse model of treatment of PCP, early response (C3H/HeN mice). Format: in vivo, Pneumocystis murina.
The test system of series [3] is P. murina. The series is described as follows: Mouse model of treatment of PCP, 28-42 days (Balb/c mice). Format: in vivo, Pneumocystis murina. Here is the method: Compound Preparation: SCY-078 (ibrexafungerp) was prepared in 0.5% methyl cellulose for oral administration. A correction factor of 1.37 was taken into account for salt and water content. […]
P. murina treatment study methods: Balb/c mice ordered from Charles River were infected with P. murina pneumonia through exposure to mice with a fulminant P. murina infection (seed mice). These mice were immune suppressed by the addition of dexamethasone at 4 mg/liter to the drinking water. Sulfuric acid at 1 ml/liter was also added to the drinking water for disinfection. The seed mice were rotated within the cages for 2 weeks and then removed. After the mice developed a moderate infection level (approximately 5 weeks), the mice were divided into a negative control group (control steroid), positive control group (TMP/SMX), and treatment groups. Drugs to be tested were administered by oral gavage (PO) on a mg/kg/BID basis for up to 6 weeks. At the end of the treatment, the mice were euthanized by CO2 and lungs were processed for analysis. Slides were made from the lung homogenates at different dilutions and stained with Diff-Quik™ to quantify the nuclei (all life cycle stages) and with cresyl echt violet to quantify the asci.
as §1

The conditions of series [4]: human, in vivo. The source says: The safety and tolerability of SCY-078 has been evaluated in more than 900 subjects in ˜20 clinical trials, at different doses and treatment durations, including administration for up to 1 year. […] Serious adverse events possibly related to SCY-078 have been very rare and interruption or discontinuation of therapy due to adverse reactions has been uncommon. Additionally, the safety profile of oral SCY-078 has been evaluated in standard long-term non-clinical toxicology studies including administration for 9 months in dogs and 6 months in rats, at doses and exposures higher than those anticipated in humans, in line with ICH guidelines. The results from these non-clinical studies support the long-term administration of oral SCY-078 in humans. SCY-078 is currently under evaluation in ongoing clinical trials for the treatment of fungal infections such as candidiasis and aspergillosis. SCY-078 has not been evaluated in clinical trials for the treatment or prevention of PCP.

The conditions of series [5]: patients with HIV; cited from earlier work.
Where [6] appears, read: 30 mg/kg BID po, 6 weeks prophylaxis.
Where [7] appears, read: all 3 dose levels (30, 15, 7.5 mg/kg BID po), 6 weeks prophylaxis, lung.
Where [8] appears, read: both dose levels (30 and 15 mg/kg BID po), Day 14 and Day 21.
Setting [9] is: 15 and 10 mg/kg groups, days 28 and 35.
Where [10] appears, read: all dose levels (15, 10, 5 mg/kg BID po), days 28, 35 and 42.

For `CC(C)[C@@H](C)[C@@]1(C)CC[C@]2(C)[C@H]3CC[C@@H]4[C@@]5(COC[C@@]4(C)[C@@H](OC[C@](C)(N)C(C)(C)C)[C@H](n4ncnc4-c4ccncc4)C5)C3=CC[C@@]2(C)[C@@H]1C(=O)O` [SCY-078, (1S,4aR,6aS,7R,8R,10aR,10bR,12aR,14R,15R)-15-[[(2R)-2-amino-2,3,3-trimethylbutyl]oxy]-8-[(1R)-1,2-dimethylpropyl]-14-[5-(4-pyridinyl)-1H-1,2,4-triazol-1-yl]-1,6,6a, 7,8,9,10,10a, 10b, 11,12,12a-dodecahydro-1,6a, 8,10a-tetramethyl-4H-1,4a-propano-2H-phenanthro [1,2-c]pyran-7-carboxylic acid], in series [1] (7.5 mg/kg BID po), the “Percent Survival at Day 7” value worked out at 100%, the “Percent Survival at Day 14” value is on record as 90%, the “Percent Survival at Day 21” value is listed as 90% and the “Percent Survival at Day 28” value was 90%. Moreover, in series [1] (7.5 mg/kg BID po), the “Percent Survival at Day 35” value is given as 90% and the “Percent Survival at Day 42” value worked out at 90%. Besides, in series [1] (15 mg/kg BID po), the “Percent Survival at Day 7” value is 100%, the “Percent Survival at Day 14” value was 90%, the “Percent Survival at Day 21” value is on record as 90% and the “Percent Survival at Day 28” value was determined as 80%. Besides, in series [1] (15 mg/kg BID po), the “Percent Survival at Day 35” value is reported as 80% and the “Percent Survival at Day 42” value came to 80%. In series [1] (setting [6]), the “reduction of asci burden compared with TMP/SMX” value is listed as “performed equally as well” and the “survival versus vehicle treated negative control group” value is listed as “significant improvement in survival”. For the same molecule, in series [1] (30 mg/kg BID po), the “Percent Survival at Day 7” value amounted to 100%, the “Percent Survival at Day 14” value was found to be 100%, the “Percent Survival at Day 21” value was 100% and the “Percent Survival at Day 28” value was determined as 100%. The “Percent Survival at Day 35” value in series [1] (30 mg/kg BID po) is 100%. The “Percent Survival at Day 42” value in series [1] (30 mg/kg BID po, * statistically significant difference vs C/S group) is 100* Percent. Moreover, in series [1] (setting [7]), the “asci burden versus vehicle treated negative control group (C/S)” value is on record as “significantly reduced” and the “nuclei burden versus vehicle treated negative control group (C/S)” value is recorded as “significantly reduced”. Moreover, the “magnitude of the effect against nuclei burden compared with TMP/SMX” value in series [2] (both dose levels) is “lower than observed with the TMP/SMX control”. Also, in series [2] (setting [8]), the “asci burdens versus vehicle treated negative control group (C/S)” value was “significantly reduced” and the “nuclei burdens versus vehicle treated negative control group (C/S)” value was “significantly reduced”. Further, in series [2] (both dose levels, Day 14 and Day 21), the “extent of asci burden reduction compared with TMP/SMX” value is recorded as “to a similar extent”. The “reduction of asci burden compared with TMP/SMX” value in series [2] (both dose levels, day 7) is “statistically significantly better”. In series [3] (setting [9]), the “asci observed in lung” value is reported as “No asci were observed” and the “reduction of asci burden compared with positive control (TMP/SMX)” value is given as “worked equally as well”. The “asci observed in lung” value in series [3] (all 3 dose groups, day 42) is “some asci were observed”. Moreover, in series [3] (setting [10]), the “asci burdens versus vehicle treated negative control group (C/S)” value is recorded as “significantly reduced” and the “nuclei burdens versus vehicle treated negative control group (C/S)” value was “significantly reduced”. Also, in series [3] (all dose levels, day 42), the “reduction of asci burden compared with positive control (TMP/SMX)” value is recorded as “worked equally well”. Moreover, in series [4], the “interruption or discontinuation of therapy due to adverse reactions” value is recorded as “uncommon”; the “most common adverse events” value is on record as “mild to moderate, transient gastrointestinal disorders”; the “serious adverse events possibly related to SCY-078” value was “very rare”.
For the molecule “Trimethoprim-sulfamethoxazole [TMP/SMX, reference compound]”, in series [1] (50/250 mg/kg 3x/wk), the “Percent Survival at Day 7” value stood at 100%, the “Percent Survival at Day 14” value is listed as 90%, the “Percent Survival at Day 21” value was determined as 90% and the “Percent Survival at Day 28” value is 90%. Also, in series [1] (50/250 mg/kg 3x/wk), the “Percent Survival at Day 35” value stood at 90% and the “Percent Survival at Day 42” value was 90%. For the same molecule, in series [5], the hepatitis is 20 % of patients and the thrombocytopenia is given as 15 % of patients.
